Test results taken from patent USRE30241E, “Esters of 3-(hydroxy or hydroxymethyl)-4-hydroxyphenyl aminomethyl ketones” (Sterling Drug Inc., priority 1970, dated 1980).
Like-named read-outs stand apart in the source and are kept apart here.

What was measured:
[1] = test system: guinea pig bronchioles constricted by carbachol; experiment: Bronchodilator Test Method II, in vitro perfused guinea pig lung
Method: In this method bronchodilator activity in vitro was determined by testing the effect of graded doses of the test compounds on guinea pig bronchioles constricted by carbachol, using the technique reported by Sollman and von Oettingen, Proc. Soc, Exp. Biol. Med., 25,692 (1928) as modified by Tainter, Pedden, and James, J. Pharm. Exp. Ther., 51, 371 (1934) and by Luduena, von Euler, Tullar, and Lands, Arch. intern. Pharmacol., III, 392 (1957).

[2] = test system: carbachol- or histamine-induced bronchoconstriction; experiment: Bronchodilator Test Method I, anesthetized dog, intraduodenal activity; assay type: in vivo; settings: Canis lupus familiaris, read-out: Bronchodilation; for inhibition in vivo at 0.45 mg/kg: 450 mcg/kg (salt) intraduodenal; for inhibition in vivo at 0.038 mg/kg: 38 mcg/kg (salt) intraduodenal; for inhibition in vivo at 0.032 mg/kg: 32 mcg/kg (salt) intraduodenal; for inhibition in vivo at 0.128 mg/kg: 128 mcg/kg (salt) intraduodenal
Method: (§1) Male and female dogs weighing 9-18 kg. each were anesthetized with pentobarbital sodium (30 mg./kg. i.v.). Each animal, with thorax opened at the midsternum, was maintained under artificial ventilation using a constant volume pump (250 ml./stroke; 10 to 12 strokes per minute) attached to the tracheal cannula. The flow of air was controlled by a glass or plastic valve which closed and opened respectively on inflow and outflow of the air to and from the tracheal cannula. Bronchoconstriction and/or bronchodilatation were measured from changes in the basal airway pressure reflected by a transducer attached to the sidearm of the cannula relayed to a polygraph.
Control bronchoconstrictions were induced by intravenous injections of carbachol (choline chloride carbamate) in doses ranging from 4 to 6 micrograms per kilogram or histamine diphosphate in doses ranging from 35 to 45 micrograms per kilogram. In the majority of test animals, the above doses of constrictor agents produced a 100-200 percent increase in the normal airway pressure or amplitude.
Injections were repeated at 20-30 minutes.
In intraduodenal studies, in the dog prepared for bronchodilation measurements, the duodenal segment of the small intestine was made easily accessible through a small mid-line incision in the abdomen. The test solution was injected into the duodenum using a fine needle. Commencing 5 minutes after medication, the degree and duration of bronchodilation were tested by injecting a control dose of carbachol or histamine at intervals of 30-60 minutes until the recovery or near-recovery was apparent. In some dogs showing an early recovery, a reference drug was also tested in the same dog 1.5-2 hours after the first medicine.

[3] = test system: carbachol- or histamine-induced bronchoconstriction; experiment: Bronchodilator Test Method I, anesthetized dog, intravenous activity; assay type: in vivo; settings: Canis lupus familiaris, read-out: Bronchodilatation; for inhibition in vivo at 0.0012 mg/kg: 1.2 mcg/kg i.v.; for inhibition in vivo at 0.006 mg/kg: 6.0 mcg/kg i.v.; for inhibition in vivo at 0.008 mg/kg: 8 mcg/kg i.v.; for inhibition in vivo at 0.032 mg/kg: 32 mcg/kg i.v.; for inhibition in vivo at 0.128 mg/kg: 128 mcg/kg i.v.
Method: Bronchodilator activity was tested in anesthetized dogs (Test Method I) and in vitro on the perfused guinea pig lung (Test Method II), using the following pharmacological test procedures
as §1
Control bronchoconstrictions were induced by intravenous injections of carbachol (choline chloride carbamate) in doses ranging from 4 to 6 micrograms per kilogram or histamine diphosphate in doses ranging from 35 to 45 micrograms per kilogram.
Solutions of the test compounds were prepared in distilled water or in saline (for infusion). […] These solutions were then tested for bronchodilator activity in three ways, viz. (1) by mixing a graded dose of test compound with the constant does of carbachol or histamine in a syringe and injecting the mixture into the femoral vein of the dog, (2) by producing the bronchoconstriction first and injecting the test compound at the time of maximum constriction, and (3) by injecting the test compound first followed by carbachol or histamine in 1-10 minutes. Injections were repeated at 20-30 minutes. Bronchodilator values were obtained by measuring the areas under the response polygraph tracings (the first 5 munite period) of carbachol or histamine controls and of the experimentals using a planimeter. Decrease in the area thus measured was expressed as a percent bronchodilatation in reference to the area of control carbachol or histamine constriction. The mean bronchodilatations (the reductions in constrictions) were plotted against the doses administered and the mean effective dose (ED50) was estimated in micrograms/kilogram from the does-response curves. Blood pressure recording was taken from the femoral artery using an arterial transducer relayed to a polygraph.

Compound: 3,4-bis(p-toluyloxy)-alpha-[1-(tert-butylaminomethyl)propyl]benzyl alcohol hydrochloride [Example 144]
- Duration, Mean ([1]; dose 500 mcg (base)): 83 ± 26.8 min

Compound: CC(C)C(=O)Oc1ccc(C(O)CNC(C)(C)C)cc1OC(=O)C(C)C.Cl (stereo not drawn) [Example 2, 3,4-bis(isobutyryloxy)-alpha-(tert-butylaminomethyl)benzyl alcohol hydrochloride]
- ED50 ([1]; carbachol (Doryl) 1:5 million): 0.28 µg (base)
- Duration, Mean ([1]; dose 0.5 mcg (base)): 9 ± 1.1 min

Compound: CC(C)(C)NCC(O)c1ccc(OC(=O)C(C)(C)C)c(O)c1 (stereo not drawn) [Example 59, 3-hydroxy-4-(pivalyloxy)-alpha-(tert-butylaminomethyl)benzyl alcohol methanesulfonate]
- ED50 ([1]; carbachol (Doryl) 1:5 million): 1.2 µg (base)
- Duration, Mean ([1]; dose 3.2 mcg (base)): 25 ± 5.6 min

Compound: Cc1ccc(C(=O)Oc2ccc(C(O)CNC(C)C)cc2OC(=O)c2ccc(C)cc2)cc1 (stereo not drawn) [Example 89, 3,4-bis(p-toluyloxy)-alpha-(isopropylaminomethyl)benzyl alcohol]
- ED50 ([1]; carbachol (Doryl) 1:5 million): 6.4 µg (base)
- Duration, Mean ([1]; dose 15 mcg (base)): 125 ± 31 min

Compound: Cc1ccc(C(=O)Oc2ccc(C(O)CN)cc2OC(=O)c2ccc(C)cc2)cc1 (stereo not drawn) [Example 127, 3,4-bis(p-toluyloxy)-alpha-(aminomethyl)benzyl alcohol methanesulfonate]
- inhibition in vivo at 0.45 mg/kg ([2]; 5 min, 5 min): 16%
- inhibition in vivo at 0.45 mg/kg ([2]; 10 min, 10 min): 16%
- inhibition in vivo at 0.45 mg/kg ([2]; 1 h, 60 min): 0%
- inhibition in vivo at 0.45 mg/kg ([2]; […], after 90 min): 0%

Compound: COc1ccc(C(=O)Oc2ccc(C(O)CNC(C)(C)C)cc2OC(=O)c2ccccc2)cc1 (stereo not drawn) [Example 143, 3-benzoyloxy-4-(p-anisoyloxy)-alpha-(tert-butylaminomethyl)benzyl alcohol]
- ED50 ([1]; Doryl conc. 1:10 million): 1.53 µg (base)
- Duration, Mean ([1]; dose 2 mcg (base), Doryl conc. 1:10 million): 29.2 ± 10.2 min

Compound: CC(=O)Oc1ccc(C(O)CNC(C)(C)C)cc1OC(=O)c1ccc(C)cc1 (stereo not drawn) [Example 146, 3-(p-toluyloxy)-4-acetoxy-alpha-(tert-butylaminomethyl)benzyl alcohol methanesulfonate]
- inhibition in vivo at 0.038 mg/kg ([2]; 5 min, 5 min): 60%
- inhibition in vivo at 0.038 mg/kg ([2]; 0.5 h, 30 min): 39%
- inhibition in vivo at 0.038 mg/kg ([2]; 1 h, 60 min): 39%
- inhibition in vivo at 0.038 mg/kg ([2]; 2 h, 120 min): 26%
- inhibition in vivo at 0.038 mg/kg ([2]; 3 h, 180 min): 33%
- inhibition in vivo at 0.038 mg/kg ([2]; 4 h, 240 min): 24%
- inhibition in vivo at 0.038 mg/kg ([2]; 5 h, 300 min): 13%
- inhibition in vivo at 0.0012 mg/kg ([3]; 5 min, 5 min): 31%
- inhibition in vivo at 0.006 mg/kg ([3]; 5 min, 5 min): 66%
- inhibition in vivo at 0.0012 mg/kg ([3]; 0.5 h, 30 min): 38%
- inhibition in vivo at 0.006 mg/kg ([3]; 0.5 h, 30 min): 57%
- inhibition in vivo at 0.0012 mg/kg ([3]; 1 h, 60 min): 44%
- inhibition in vivo at 0.006 mg/kg ([3]; 1 h, 60 min): 63%
- inhibition in vivo at 0.0012 mg/kg ([3]; 3 h, 180 min): 20%
- inhibition in vivo at 0.0012 mg/kg ([3]; 4 h, 240 min): 20%

Compound: CC(=O)OCc1cc(C(O)CNC(C)(C)C)ccc1OC(=O)C12CC3CC(CC(C3)C1)C2 (stereo not drawn) [Example 152, 3-(acetoxymethyl)-4-(1-adamantanecarbonyloxy)-alpha-(tert-butylaminomethyl)benzyl alcohol methanesulfonate]
- inhibition in vivo at 0.032 mg/kg ([2]; 5 min, 5 min): 6%
- inhibition in vivo at 0.128 mg/kg ([2]; 5 min, 5 min): 6%
- inhibition in vivo at 0.032 mg/kg ([2]; 0.5 h, 30 min): 6%
- inhibition in vivo at 0.128 mg/kg ([2]; 0.5 h, 30 min): 43%
- inhibition in vivo at 0.032 mg/kg ([2]; 1 h, 60 min): 17%
- inhibition in vivo at 0.128 mg/kg ([2]; 1 h, 60 min): 59%
- inhibition in vivo at 0.032 mg/kg ([2]; 2 h, 120 min): 48%
- inhibition in vivo at 0.128 mg/kg ([2]; 2 h, 120 min): 51%
- inhibition in vivo at 0.032 mg/kg ([2]; 3 h, 180 min): 45%
- inhibition in vivo at 0.128 mg/kg ([2]; 3 h, 180 min): 65%
- inhibition in vivo at 0.032 mg/kg ([2]; 4 h, 240 min): 45%
- inhibition in vivo at 0.128 mg/kg ([2]; 4 h, 240 min): 59%
- inhibition in vivo at 0.032 mg/kg ([2]; 5 h, 300 min): 21%
- inhibition in vivo at 0.128 mg/kg ([2]; 5 h, 300 min): 54%
- inhibition in vivo at 0.008 mg/kg ([3]; 5 min, 5 min): 44%
- inhibition in vivo at 0.032 mg/kg ([3]; 5 min, 5 min): 77%
- inhibition in vivo at 0.128 mg/kg ([3]; 5 min, 5 min): 97%
- inhibition in vivo at 0.008 mg/kg ([3]; 0.5 h, 30 min): 39%
- inhibition in vivo at 0.032 mg/kg ([3]; 0.5 h, 30 min): 78%
- inhibition in vivo at 0.128 mg/kg ([3]; 0.5 h, 30 min): 92%
- inhibition in vivo at 0.008 mg/kg ([3]; 1 h, 60 min): 50%
- inhibition in vivo at 0.032 mg/kg ([3]; 1 h, 60 min): 75%
- inhibition in vivo at 0.128 mg/kg ([3]; 1 h, 60 min): 93%
- inhibition in vivo at 0.008 mg/kg ([3]; 2 h, 120 min): 33%
- inhibition in vivo at 0.032 mg/kg ([3]; 2 h, 120 min): 70%
- inhibition in vivo at 0.128 mg/kg ([3]; 2 h, 120 min): 87%
- inhibition in vivo at 0.008 mg/kg ([3]; 3 h, 180 min): 39%
- inhibition in vivo at 0.032 mg/kg ([3]; 3 h, 180 min): 63%
- inhibition in vivo at 0.128 mg/kg ([3]; 3 h, 180 min): 89%
- inhibition in vivo at 0.008 mg/kg ([3]; 4 h, 240 min): 39%
- inhibition in vivo at 0.032 mg/kg ([3]; 4 h, 240 min): 52%
- inhibition in vivo at 0.128 mg/kg ([3]; 4 h, 240 min): 88%
- inhibition in vivo at 0.008 mg/kg ([3]; 4.5 h, 270 min): 0%
- inhibition in vivo at 0.032 mg/kg ([3]; 4.5 h, 270 min): 45%
- inhibition in vivo at 0.128 mg/kg ([3]; 4.5 h, 270 min): 82%
